From patent publication US7763611B2, “Aroylsemicarbazide derivatives against thromboembolic diseases” (Merck Patent GmbH, priority 2003, dated 2010)

Columns and labels:
[1] = biological target: FXa (Homo sapiens, UniProt P00742); test: Factor Xa inhibition (FXa-IC50); format: biochemical
From the text: The inhibition of factor Xa by the compounds according to the invention and the measurement of the anticoagulant and antithrombotic activity can be determined by conventional in-vitro or in-vivo methods. A suitable method is described, for example, by J. Hauptmann et al. in Thrombosis and Haemostasis 1990, 63, 220-223.
The inhibition of factor Xa can be measured, for example by the method of T. Hara et al. in Thromb. Haemostas. 1994, 71, 314-319.

[2] = biological target: TF/FVIIa (Homo sapiens, UniProt P08709); test: TF/FVIIa inhibition (TF/FVIIa-IC50); format: biochemical
From the text: The inhibition of factor VIIa by the compounds according to the invention and the measurement of the anticoagulant and antithrombotic activity can be determined by conventional in-vitro or in-vivo methods. A conventional method for the measurement of the inhibition of factor VIIa is described, for example, by H. F. Ronning et al. in Thrombosis Research 1996, 84, 73-81.

Chain of TF/FVIIa (P08709 213-466 limits assumed): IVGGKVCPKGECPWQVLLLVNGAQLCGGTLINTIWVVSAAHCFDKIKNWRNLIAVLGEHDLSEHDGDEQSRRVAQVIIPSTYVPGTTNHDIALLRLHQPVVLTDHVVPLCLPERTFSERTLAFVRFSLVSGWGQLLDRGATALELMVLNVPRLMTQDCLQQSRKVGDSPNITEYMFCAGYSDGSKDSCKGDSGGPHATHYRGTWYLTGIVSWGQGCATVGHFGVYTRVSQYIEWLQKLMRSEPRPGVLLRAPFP
Chain of TF/FVIIa (P08709 61-212 limits assumed): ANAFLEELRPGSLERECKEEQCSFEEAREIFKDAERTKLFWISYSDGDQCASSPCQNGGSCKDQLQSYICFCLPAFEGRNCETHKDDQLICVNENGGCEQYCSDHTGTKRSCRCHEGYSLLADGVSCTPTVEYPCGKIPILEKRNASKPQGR
Chain of TF/FVIIa (P13726 33-295 partner): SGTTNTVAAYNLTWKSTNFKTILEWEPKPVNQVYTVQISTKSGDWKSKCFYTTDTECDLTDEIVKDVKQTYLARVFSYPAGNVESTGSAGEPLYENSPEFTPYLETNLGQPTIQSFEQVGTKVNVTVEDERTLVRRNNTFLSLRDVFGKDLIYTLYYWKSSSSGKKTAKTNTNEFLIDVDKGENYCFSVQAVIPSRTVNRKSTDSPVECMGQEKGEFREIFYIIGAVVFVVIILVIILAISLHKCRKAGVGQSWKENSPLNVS
Chain of FXa (P00742 235-488 limits assumed): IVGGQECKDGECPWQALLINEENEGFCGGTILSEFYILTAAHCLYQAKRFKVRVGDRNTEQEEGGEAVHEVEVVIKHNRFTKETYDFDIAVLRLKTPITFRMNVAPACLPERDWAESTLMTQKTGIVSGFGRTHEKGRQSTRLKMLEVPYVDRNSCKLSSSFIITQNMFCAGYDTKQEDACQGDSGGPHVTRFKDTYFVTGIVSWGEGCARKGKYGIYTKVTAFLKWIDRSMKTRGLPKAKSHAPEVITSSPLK
Chain of FXa (P00742 41-179 limits assumed): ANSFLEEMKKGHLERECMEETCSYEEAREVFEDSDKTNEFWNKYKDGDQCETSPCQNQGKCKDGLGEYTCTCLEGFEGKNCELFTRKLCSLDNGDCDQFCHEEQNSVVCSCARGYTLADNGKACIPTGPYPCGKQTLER

Row | IC50 [1] [nM] | IC50 [2] [nM] | melting point [°C] | Structure (SMILES)
1 | 390 | 830 | 101 to 102 | CCCN(NC(=O)c1ccc(Cl)s1)C(=O)Nc1ccc(N2CCOCC2=O)cc1 [Compound A1, 1-(5-chlorothien-2-ylcarbonyl)-4-[4-(3-oxomorpholin-4-yl)phenyl]-2-propylsemicarbazide]
2 | 570 | 1000 | – | C#CCN(NC(=O)c1ccc(Cl)s1)C(=O)Nc1ccc(N2CCOCC2=O)c(C)c1 [Compound A2, 1-(5-chlorothien-2-ylcarbonyl)4-[3-methyl-4-(3-oxomorpholin4-yl)-phenyl]-2-(prop-2-ynyl)semicarbazide]
3 | 87 | 180 | – | Cc1cc(NC(=O)N(Cc2ccccc2)NC(=O)c2sccc2Cl)ccc1N1CCOCC1=O [Compound A3, 1-(3-chlorothien-2-ylcarbonyl)4-[3-methyl4-(3-oxomorpholin4-yl)-phenyl]-2-benzylsemicarbazide]
